One experiment deals with Holtzman male rats. Put plainly: Rat liver, small intestine and fecal lipid extraction. The experiment is classed as in vivo. The conditions noted are these: 14 days 10 mg/kg/day orally.
The target of the next experiment is T1, Acetyl CoA Carboxylase (Mus musculus, UniProt Q5SWU9).
T1 construct: 10% homogenates of CF1 male mouse liver; from tissue; host or cells: CF1 male mouse liver, 10% homogenate
Put plainly: In vivo liver enzyme study: acetyl CoA carboxylase. The conditions noted are these: CF1 liver after 16 days i.p. As for the experimental part:
In vitro enzymatic studies were determined using 10% homogenates of CF1 male mouse liver with 50-200 μM of test drugs. In vivo enzymatic studies were determined using 10% homogenates of liver from CF1 male mice obtained after administering the agents for 16 days at a dose ranging from 2.5-20 mg/kg/day intraperitoneally. The liver homogenates for both in vitro and in vivo studies were prepared in 0.25M sucrose and 0.001M (ethylenedinitrilo)tetraacetic acid. Acetyl coenzyme A synthetase and adenosine triphosphate dependent citrate lyase activities were determined spectrophotometrically at 540 nm as the hydroxylamate of acetyl coenzyme A formed after 30 min at 37° C. Mitochondrial citrate exchange was determined by the procedure of Robinson et al [Eur. J. Biochem., 216, 63 (1970)] using ^14 C-sodium bicarbonate (41 mCi/mmol) incorporated into mitochondrial ^14 C-citrate after isolating rat mitochondria (9000 g×10 min) from the homogenates. The exchanges of the ^14 C-citrate were determined after incubating the mitochondrial fraction which was loaded with labeled citrate and test drugs for 10 min. Then the radioactivity was measured in the mitochondrial and supernantant fractions in scintillation fluid and expressed as a percentage. Cholesterol side chain oxidation was determined by the method of Kritchevsky and Tepper [Artherosclerosis, 18, 93 (1973)] using (26-^14 C) cholesterol (50 mCi/mmol) and mitochondria isolated from rat liver homogenates. […] Fatty acid synthetase activity was determined by the method of Brady et al [J. Biol. Chem., 235, 3093 (1960)] using [2-^14 C] malonyl-coenzyme A (37.5 mCi/mmol) which was incorporated into newly synthesized fatty acids that were extracted with ether and counted. Acyl transferase activity was determined with glycerol-3phosphate [L-2-^3 H(N)] […] HCl and counted. Phosphatidate phosphohydrolase activity was measured as the inorganic phosphate released after 30 min from phosphatidic acid by the method of Mavis et al [J. Lipid Res., 19, 467 (1978)]. […]

In the case of “{Cu[(CH3)3 N.BH2 CO2 ]2.(CH3)3 N.BH2 COOH} [Compound I]”, in the experiment on Holtzman male rats (rat Feces), the Cholesterol is given as 110 ± 6 Percent Control, the “Mg of Lipid Extracted” value was 123 ± 5 Percent Control, the “Neutral Lipids” value came out at 131 ± 7 Percent Control and the Phospholipids is 183 ± 8 Percent Control. In addition, in the experiment with Holtzman male rats (rat Feces), the Protein came to 68 ± 6 Percent Control and the Triglyceride is 133 ± 7 Percent Control. Moreover, in the experiment on Holtzman male rats (rat Liver), the Cholesterol is recorded as 65 ± 6 Percent Control, the “Mg of Lipid Extracted” value is 51 ± 5 Percent Control, the “Neutral Lipids” value came out at 93 ± 9 Percent Control and the Phospholipids amounted to 93 ± 9 Percent Control. For the same substance, in the experiment on Holtzman male rats (rat Liver), the Protein was 99 ± 7 Percent Control and the Triglyceride was determined as 76 ± 7 Percent Control. For the same substance, in the experiment with Holtzman male rats (rat Small Intestine), the Cholesterol worked out at 47 ± 6 Percent Control, the “Mg of Lipid Extracted” value was 43 ± 5 Percent Control, the “Neutral Lipids” value came to 17 ± 3 Percent Control and the Phospholipids came to 46 ± 5 Percent Control. In the experiment on Holtzman male rats (rat Small Intestine), the Protein is 111 ± 8 Percent Control and the Triglyceride is reported as 40 ± 4 Percent Control. Further, at Acetyl CoA Carboxylase (2.5 mg/kg), the “Acetyl CoA Carboxylase” value was 103 ± 6% of control. Further, the “Acetyl CoA Carboxylase” value at Acetyl CoA Carboxylase (5.0 mg/kg) was 95% of control. Further, the “Acetyl CoA Carboxylase” value at Acetyl CoA Carboxylase (10 mg/kg) is listed as 120 ± 7% of control.

Source of the values: patent publication US4550186A, “Binuclear copper (II) carboxylates formed from amine-carboxyboranes” (Duke University, priority 1983, dated 1985).
